The results in this text go back to patent publication US10183009B2, “Therapeutic compounds and uses thereof” (GENENTECH, INC., priority 2014, dated 2019).

Usually IC50 stands for the concentration needed to halve the response being measured. The low end stands for higher potency, the high end for lower potency.

Each structure is given as a SMILES string.

In this test the target is TAF1-BD2 (Homo sapiens (Human), UniProt P21675). The experiment in a line: TAF1-BD2 TR-FRET Binding Assay. The following applies: Assay: TAF-1. Background: Time-resolved FRET reads energy transfer from a long-lived donor to a nearby acceptor.
TAF1-BD2, sequence (P21675 1525-1656 limits assumed): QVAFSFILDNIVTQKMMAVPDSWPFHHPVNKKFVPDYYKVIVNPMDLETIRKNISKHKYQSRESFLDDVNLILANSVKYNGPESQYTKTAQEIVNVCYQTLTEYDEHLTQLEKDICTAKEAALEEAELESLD

Experimental: Specifically, in a 384 well ProxiPlate TAF1-BD2 (6 nM final) was combined with biotin-ligand (50 nM final) in 50 mM HEPES (pH 7.5), 50 mM NaCl, 1 mM TCEP, 0.01% (w/v) BSA, and 0.008% (w/v) Brij-35 either in the presence of DMSO (final 0.2% DMSO) or compound dilution series in DMSO. After 10 minutes incubation at room temperature, a mixture Eu-W1024 Anti-6×His antibody (Perkin Elmer AD0110) and SureLight™ Allophycocyanin-Streptavidin (APC-SA, Perkin Elmer CR130-100) were added to a final concentrations of 0.2 nMolar antibody and 25 nMolar APC-SA, respectively. After twenty minutes of equilibration, the plates were read on an Envision instrument and IC50s calculated using a four parameter non-linear curve fit.

Take `C/C=C/Cn1cc(-c2cc(C(=O)N3CCC3)ccc2OC)c2cc[nH]c2c1=O` [Example 71, 4-[5-(azetidine-1-carbonyl)-2-methoxy-phenyl]-6-[(E)-but-2-enyl]-1H-pyrrolo[2,3-c]pyridin-7-one]: the IC50 was determined as 1.8 µM.
The figure for `Cc1cc2c(-c3cccc(C(=O)N(C)C)c3)cn(CCC3CC3)c(=O)c2[nH]1` [Example 85, 3-[6-(2-cyclopropylethyl)-2-methyl-7-oxo-1H-pyrrolo[2,3-c]pyridin-4-yl]-N,N-dimethyl-benzamide] is 0.48 µM.
